# From PubChem BioAssay (NCI)
#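 96-well plates; 48 h exposure; 5 concentrations. Endpoints by linear interpolation between flanking doses. Not reached: highest tested concentration assigned. GI50 is the concentration that inhibits growth by half. At the TGI there is no net growth.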
# How the values were obtained:
# Assay in all cases: DTP human tumour cell line panel, 48 h
# [1] = system: SK-OV-3 ovarian
# [2] = system: M14 melanoma
# [3] = system: CAKI-1 renal
# [4] = system: HOP-92 NSCLC
# [5] = system: OVCAR-4 ovarian
# [6] = system: T-47D breast
# [7] = system: SNB-19 CNS
# [8] = system: HOP-62 NSCLC
# [9] = system: PC-3 prostate
# [10] = system: A498 renal
# [11] = system: SF-295 CNS
# [12] = system: RPMI-8226 leukemia
# [13] = system: MCF7 breast
# [14] = system: TK-10 renal
# [15] = system: BT-549 breast
# [16] = system: RXF 393 renal
# [17] = system: UACC-62 melanoma
# [18] = system: HL-60(TB) leukemia
# [19] = system: OVCAR-5 ovarian
# [20] = system: ACHN renal
# [21] = system: NCI-H226 lung
# [22] = system: NCI/ADR-RES ovarian
# [23] = system: UACC-257 melanoma
# [24] = system: UO-31 renal
# [25] = system: OVCAR-3 ovarian
# [26] = system: SK-MEL-5 melanoma
# [27] = system: SNB-75 CNS
# [28] = system: MOLT-4 leukemia
# [29] = system: 786-0 renal
# [30] = system: MALME-3M melanoma
# [31] = system: K-562 leukemia
# [32] = system: KM12 colon
# [33] = system: SK-MEL-28 melanoma
# [34] = system: SF-539 CNS
# [35] = system: MDA-MB-435
# [36] = system: DU-145 prostate
# [37] = system: MDA-MB-231 breast
# [38] = system: U251 CNS
# [39] = system: SK-MEL-2 melanoma
# [40] = system: NCI-H522 lung
# [41] = system: LOX IMVI melanoma
# [42] = system: OVCAR-8 ovarian
# [43] = system: SR leukemia
# [44] = system: EKVX NSCLC
# [45] = system: IGROV1 ovarian
# [46] = system: HCT-15 colon
# [47] = system: NCI-H460 lung
# [48] = system: SW-620 colon
# [49] = system: NCI-H23 lung
# [50] = system: HCC-2998 colon
# [51] = system: CCRF-CEM leukemia
# [52] = system: COLO 205 colon
structure (smiles),measurement,setting,value
Cl.Fc1c[c-]c(-c2ccccn2)c(F)c1.[Pt].c1ccc([PH+](CC[PH+](c2ccccc2)c2ccccc2)c2ccccc2)cc1,GI50,[1],184 nM
same,TGI,[1],754 nM
same,GI50,[2],74.1 nM
same,TGI,[2],1220 nM
same,GI50,[3],246 nM
same,TGI,[3],948 nM
same,GI50,[4],121 nM
same,TGI,[4],422 nM
same,GI50,[5],187 nM
same,TGI,[5],1010 nM
same,GI50,[6],91.2 nM
same,TGI,[6],1390 nM
same,GI50,[7],65.6 nM
same,TGI,[7],1260 nM
same,GI50,[8],186 nM
same,TGI,[8],688 nM
same,GI50,[9],51.4 nM
same,TGI,[9],1090 nM
same,GI50,[10],103 nM
same,TGI,[10],478 nM
same,GI50,[11],47.4 nM
same,TGI,[11],328 nM
same,GI50,[12],34.1 nM
same,TGI,[12],249 nM
same,GI50,[13],62.5 nM
same,TGI,[13],1100 nM
same,GI50,[14],157 nM
same,TGI,[14],1130 nM
same,GI50,[15],86.7 nM
same,TGI,[15],978 nM
same,GI50,[16],214 nM
same,TGI,[16],997 nM
same,GI50,[17],128 nM
same,TGI,[17],364 nM
same,GI50,[18],56.3 nM
same,TGI,[18],319 nM
same,GI50,[19],178 nM
same,TGI,[19],919 nM
same,GI50,[20],271 nM
same,TGI,[20],993 nM
same,GI50,[21],184 nM
same,TGI,[21],1130 nM
same,GI50,[22],1010 nM
same,TGI,[22],4180 nM
same,GI50,[23],165 nM
same,TGI,[23],975 nM
same,GI50,[24],254 nM
same,TGI,[24],930 nM
same,GI50,[25],82.7 nM
same,TGI,[25],414 nM
same,GI50,[26],130 nM
same,TGI,[26],261 nM
same,GI50,[27],23.4 nM
same,TGI,[27],534 nM
same,GI50,[28],291 nM
same,TGI,[28],1290 nM
same,GI50,[29],231 nM
same,TGI,[29],1060 nM
same,GI50,[30],61 nM
same,TGI,[30],409 nM
same,GI50,[31],36.9 nM
same,GI50,[32],77.2 nM
same,TGI,[32],277 nM
same,GI50,[33],167 nM
same,TGI,[33],1400 nM
same,GI50,[34],164 nM
same,TGI,[34],976 nM
same,GI50,[35],127 nM
same,TGI,[35],510 nM
same,GI50,[36],65.6 nM
same,TGI,[36],1200 nM
same,GI50,[37],178 nM
same,TGI,[37],496 nM
same,GI50,[38],31.9 nM
same,TGI,[38],1130 nM
same,GI50,[39],233 nM
same,TGI,[39],756 nM
C=CCN1C(=O)/C(=C/c2cccs2)N=C1SC1OC(COC(=O)c2ccccc2)C(OC(=O)c2ccccc2)C1OC(=O)c1ccccc1 (centres undefined),TGI,[40],28000 nM
same,TGI,[1],> 100000 nM
same,TGI,[3],> 100000 nM
same,TGI,[4],> 100000 nM
same,TGI,[5],> 100000 nM
same,TGI,[8],> 100000 nM
same,TGI,[9],> 100000 nM
same,TGI,[10],> 100000 nM
same,TGI,[11],> 100000 nM
same,TGI,[41],> 100000 nM
same,TGI,[12],> 100000 nM
same,TGI,[13],> 100000 nM
same,TGI,[42],> 100000 nM
same,TGI,[14],> 100000 nM
same,TGI,[43],> 100000 nM
same,TGI,[44],> 100000 nM
same,TGI,[15],> 100000 nM
same,TGI,[16],> 100000 nM
same,TGI,[45],> 100000 nM
same,TGI,[17],> 100000 nM
same,TGI,[46],> 100000 nM
same,TGI,[18],> 100000 nM
same,TGI,[19],> 100000 nM
same,TGI,[20],> 100000 nM
same,TGI,[21],> 100000 nM
same,TGI,[47],> 100000 nM
same,TGI,[22],> 100000 nM
same,TGI,[23],> 100000 nM
same,TGI,[48],> 100000 nM
same,TGI,[25],> 100000 nM
same,TGI,[26],> 100000 nM
same,TGI,[27],> 100000 nM
same,TGI,[49],> 100000 nM
same,TGI,[28],> 100000 nM
same,TGI,[30],> 100000 nM
same,TGI,[31],> 100000 nM
same,TGI,[32],> 100000 nM
same,TGI,[50],> 100000 nM
same,TGI,[33],> 100000 nM
same,TGI,[34],> 100000 nM
same,TGI,[51],80900 nM
same,TGI,[35],> 100000 nM
same,TGI,[36],> 100000 nM
same,TGI,[37],> 100000 nM
same,TGI,[38],> 100000 nM
same,TGI,[52],> 100000 nM
same,TGI,[39],> 100000 nM
